Data reported in patent US4550186A, “Binuclear copper (II) carboxylates formed from amine-carboxyboranes” (Duke University, priority 1983, dated 1985).

What was measured:
Holtzman male rats = test: Antihyperlipidemic screen in normal rats; type: in vivo, rat
Procedure: Compounds to be tested were suspended in 1% carboxymethylcellulose-water and administered to CF1 male mice (~25 g) intraperitoneally for 16 days or Holtzman male rats (~350 g) orally by an intubation needle for 16 days. On days 9 or 16, blood was obtained by tail vein bleeding and the serum separated by centrifugation for 3 min. The serum cholesterol levels were determined by a modification of the Liebermann-Burchard reaction as described in Ness et al, Clin. Chim. Acta, 10, 229 (1964). Serum was also collected on day 16 and the triglyceride content was determined by a commercial kit, The Fisher Hycel Triglyceride Test Kit.
Data are expressed in the Table 2-7 as percent of control ± the standard deviation. The probable significant level (P) between each test group and the control group was determined by the Student's "t" test.

[1] = test system: CF1 male mice on atherogenic diet; test: Testing in atherogenic mice; type: in vivo, mouse; details: 12 days
Procedure: CF1 male mice (~25 g) were placed on a commercial diet (the U.S. Biochemical Corporation Basel Atherogenic Test Diet) which contained butterfat (400 g), celufil (cellulose; 60 g), cholesterol (53 g), choline dihydrogen citrate (4 g), salt mixture oil (Wesson; 40 g), sodium cholate (20 g), sucrose (223 g), vitamin free casein (200 g) and total vitamin supplement for 10 days. After the cholesterol and triglyceride levels were assayed and observed to be elevated, the mice were administered test drugs at 10 mg/kg/day intraperitoneally for an additional 12-day period. Serum cholesterol and triglyceride levels were measured after 12 days of administration of the drugs.

CF1 male mice = test: Acute toxicity (LD50); type: in vivo, mouse; details: CF1 mice intraperitoneally, single dose, 7 days
Procedure: The acute toxicity (LD50 values) was determined in CF1 male mice by administering test drugs intraperitoneally from 5-50 mg/kg as a single dose. The number of deaths recorded over 7 days in the group was determined for each dosage.

Acetyl CoA synthetase = test: In vivo liver enzyme study: acetyl CoA synthetase; set-up: species or system mouse; details: CF1 liver after 16 days i.p.
Procedure: (§1) In vitro enzymatic studies were determined using 10% homogenates of CF1 male mouse liver with 50-200 μM of test drugs. In vivo enzymatic studies were determined using 10% homogenates of liver from CF1 male mice obtained after administering the agents for 16 days at a dose ranging from 2.5-20 mg/kg/day intraperitoneally. The liver homogenates for both in vitro and in vivo studies were prepared in 0.25M sucrose and 0.001M (ethylenedinitrilo)tetraacetic acid. Acetyl coenzyme A synthetase and adenosine triphosphate dependent citrate lyase activities were determined spectrophotometrically at 540 nm as the hydroxylamate of acetyl coenzyme A formed after 30 min at 37° C. Mitochondrial citrate exchange was determined by the procedure of Robinson et al [Eur. J. Biochem., 216, 63 (1970)] using ^14 C-sodium bicarbonate (41 mCi/mmol) incorporated into mitochondrial ^14 C-citrate after isolating rat mitochondria (9000 g×10 min) from the homogenates. The exchanges of the ^14 C-citrate were determined after incubating the mitochondrial fraction which was loaded with labeled citrate and test drugs for 10 min. Then the radioactivity was measured in the mitochondrial and supernantant fractions in scintillation fluid and expressed as a percentage. Cholesterol side chain oxidation was determined by the method of Kritchevsky and Tepper [Artherosclerosis, 18, 93 (1973)] using (26-^14 C) cholesterol (50 mCi/mmol) and mitochondria isolated from rat liver homogenates. […] Fatty acid synthetase activity was determined by the method of Brady et al [J. Biol. Chem., 235, 3093 (1960)] using [2-^14 C] malonyl-coenzyme A (37.5 mCi/mmol) which was incorporated into newly synthesized fatty acids that were extracted with ether and counted. Acyl transferase activity was determined with glycerol-3phosphate [L-2-^3 H(N)] […] HCl and counted. Phosphatidate phosphohydrolase activity was measured as the inorganic phosphate released after 30 min from phosphatidic acid by the method of Mavis et al [J. Lipid Res., 19, 467 (1978)]. […]

[2] = test system: sn-Glycerol 3-phosphate Acyl Transferase; test: In vivo liver enzyme study: sn-glycerol 3-phosphate acyl transferase; set-up: species or system mouse; details: CF1 liver after 16 days i.p.
Procedure: as §1

[3] = test system: ribonucleic acid synthesis of Ehrlich ascites cells; test: In vitro whole cell incorporation: ribonucleic acid synthesis; type: cell-based, mouse; details: preliminary, 60 min, read-out: ID50, ribonucleic acid synthesis
Procedure: CF1 male mice (~30 g) were implanted with 2×10^6 Ehrlich ascites tumor cells, intraperitoneally on Day 0. Compound I was suspended by homogenation in 0.05% polysorbate.80-water and administered intraperitoneally at 10 and 20 mg/kg for 9 days to determine its effectiveness for inhibition of tumor growth. Mice were sacrificed on Day 10, and the ascites fluid was collected from the peritoneal cavity. The volume and ascrit (packed cell volume) were determined for each animal and the percent inhibition of tumor growth was calculated. For the metabolic studies, mice were treated on Days 8 and 9 with 10 mg/kg of Compound I, intraperitoneally. The animal was sacrificed on Day 10 and the ascites fluid harvested. The in vitro metabolic studies were performed at […] final concentration of Compound I.
In vitro incorporation of ^3 H-thymidine, ^3 H-uridine, or ^3 H-leucine was determined using 10^6 Ehrlich ascites cells, 1 μCi labeled precursor, minimum essential medium and varying final concentrations of drug from 0.25-1.0 mM. The tubes were incubated at 37° C. for 60 min and inactivated by trichloroacetic acid. The acid insoluble labeled deoxyribonucleic acid was collected on GF/F glass filter discs and ribonucleic acid and protein were precipitated on nitrocellulose filters by vacuum suction. Results are expressed as dpm of incorporated precursor per hour per 10^6 cells.

[4] = rats orally, 10.0 mg/kg, Day 16

{Cu[(CH3)3 N.BH2 CO2 ]2.(CH3)3 N.BH2 COOH} [Compound I]
Serum Cholesterol (Holtzman male rats; rats orally, 10.0 mg/kg, Day 9): 63 ± 5 % Control | Serum Cholesterol (Holtzman male rats; [4]): 65 ± 5 % Control | Serum Triglyceride (Holtzman male rats; [4]): 36 ± 4 % Control | Serum triglyceride levels reduced (Holtzman male rats; rats, 10 mg/kg/day): 64% | reduction in serum cholesterol levels (Holtzman male rats; rats, 10 mg/kg/day): 37% | serum cholesterol level after drug administration ([1]; hyperlipidemic induced mice (354 mg % before)): 148 mg % | serum cholesterol levels reduced ([1]; hyperlipidemic induced mice, 10 mg/kg/day i.p.): 59% | serum triglyceride levels lowered ([1]; hyperlipidemic mice, 10 mg/kg/day i.p.): 67% | LD50 (CF1 male mice): 39.2 mg/kg | Acetyl CoA synthetase (Acetyl CoA synthetase; 2.5 mg/kg): 62 ± 6% of control | Acetyl CoA synthetase (Acetyl CoA synthetase; 5.0 mg/kg): 77 ± 7% of control | Acetyl CoA synthetase (Acetyl CoA synthetase; 10 mg/kg): 73 ± 7% of control | sn-Glycerol 3-phosphate Acyl Transferase ([2]; 2.5 mg/kg): 95 ± 6% of control | sn-Glycerol 3-phosphate Acyl Transferase ([2]; 5.0 mg/kg): 95 ± 7% of control | sn-Glycerol 3-phosphate Acyl Transferase ([2]; 10 mg/kg): 119 ± 7% of control | IC50 [3]: 1820 µM
